Literature values as cited in patent publication US7749547B2, “Nutritional composition and method for increasing creatine uptake and retention in skeletal muscle, increasing muscle mass and strength, increasing exercise capacity and for aiding recovery following exercise” (priority 2006, dated 2010).

Tests used:
[1] = supplemented rats
[2] = rodents; reduced food intake, enhanced energy expenditure
[3] = not given; remark: listed apart in the source
[4] = supplementation
[5] = healthy volunteers

For `O=C(O)CCCCC1CCSS1` (stereo not drawn) [ALA, Alpha Lipoic Acid], the “age-related changes in mitochondrial function, accumulated oxidative damage and metabolic rate” value [1] is listed as “improved” and the body weight [2] is listed as “profound weight loss”.

In the case of `[Cr]` [Chromium], the lean mass (clinical) is listed as “increase lean mass”, the body fat (combined with exercise) is listed as “reduce body fat” and the “high density lipoproteins (HDL)” value (human, in vivo) is listed as “increase high density lipoproteins”.

For `CN(CC(=O)O)C(=N)N` [Creatine, N-methyl-N-guanyl Glycine], the high-intensity exercise performance ([3]; males and females) is listed as “improved”, the strength and fatigue ([3]; supplemental Creatine) is listed as “improve strength and reduce fatigue” and the “muscle fiber cross sectional area” value ([3]; supplementation) is listed as “increases muscle fiber cross sectional area”. The “strength and fat-free mass” value ([3]; with resistance training, sedentary females and male football players) was “increased strength and fat-free mass over a placebo”, the “concentration of Creatine in the muscle” value [4] was “increase the concentration of Creatine in the muscle” and the “resynthesis of Phosphocreatine” value [4] was “increase in the resynthesis of Phosphocreatine”.

For Isomalt, the “bowel function and metabolic function” value [5] is given as “promote healthy bowel function without impairing metabolic function”.
